Laboratory results published in US6756408B2, “Methods and materials for protecting against myocardial cell damage related to coronary intervention by regional beta blocker therapy” (Board of Regents, The University of Texas System, priority 2001, dated 2004).

Test system: patients with coronary artery disease undergoing PCI
Assay: Randomized, double-blind, placebo-controlled trial of intracoronary propranolol before percutaneous coronary intervention
Type: in vivo
Experimental: Study population: This study was a randomized, double-blind, placebo-controlled trial. Patients with coronary artery disease undergoing PCI were considered for inclusion. Patients on chronic beta blockers were included. Exclusion criteria included myocardial infarction (“MI”) within 24 h or recent MI with elevation of CK or CKMB at time of randomization (a normal CK and CKMB and elevated troponin T allowed inclusion); cardiogenic shock; systolic blood pressure<100 mm Hg; heart rate<50/min; NYHA class III or IV heart failure; severe left ventricular dysfunction (ejection fraction<30%); severe renal insufficiency (creatinine>3.0 mg/dl); allergy to propranolol; or second planned intervention within 30 days. Patients with chronic obstructive pulmonary disease (“COPD”) were not specifically excluded.
Study protocol: Before initiation of PCI, all patients were pretreated with aspirin and received weight-adjusted heparin, with a target activated clotting time of >300 seconds in the absence of a glycoprotein IIb/IIIa (“GP IIb/IIIa”) inhibitor and 200-300 seconds with a GP IIb/IIIa inhibitor, which was allowed but not mandated.
Patients were randomized in a 1:1 ratio to receive either placebo or propranolol. The randomization allocation code was generated using complete block design. Randomization was performed after coronary angiography confirmed the need for PCI. In patients with a total occlusion, the lesion was crossed with a guide wire before randomization.
Study drug kits were packaged by hospital pharmacy to be indistinguishable from each other with a concentration of 1 mg/ml; the identity of the injectate (i.e., propranolol or placebo) was not known to the investigators or to the patients. […] The study drug was thus delivered directly into the myocardial region supplied by the stenotic coronary artery undergoing PCI. Balloon inflation was performed after the IC injection of propranolol or placebo. Blood samples were taken prior to PCI, immediately after PCI, and every 8 h for 24 h to assay CK and CKMB. Blood samples were taken at 16 h for troponin T analysis. Additional blood levels were obtained when any patient experienced possible ischemic symptoms. The 30-day contact was made by clinic visit or telephone interview.
Study endpoints: The primary endpoint was the incidence of post-procedural elevation of CKMB above the upper limit of normal (“ULN”). The “threshold” for the development of an excess in adverse events relative to the level of CKMB appears to be a continuous function beginning with any elevation of CKMB or troponin T with the frequency of long-term adverse events, particular death, increasing with the level of enzyme rise (Simoons, which is hereby incorporated by reference). Secondary endpoints included (1) incidence of post-procedure total CK elevation, (2) incidence of troponin T elevation (in those patients with normal baseline values), (3) median peak values of CK, CKMB, and troponin T, (4) rescue therapy with GP IIb/IIIa inhibitors, and (5) combination of death from any cause, myocardial necrosis, recurrent MI within 30 days, or severe myocardial ischemia requiring urgent coronary-artery bypass surgery or target lesion revascularisation (“TLR”) within 30 days of intervention (“MACE”).
Urgent target lesion revascularisation included any coronary artery bypass graft surgery or a second PCI on the original target lesion performed for recurrent myocardial ischemia. Successful PCI was defined as post-procedure residual stenosis at the target lesion<30% of reference vessel diameter without major adverse outcome (death, Q wave MI, emergent CABG). Major bleeding was defined as bleeding requiring transfusion, surgery, prolongation of hospital stay, or >8% drop in hematocrit after PCI. Rescue GP IIb/IIIa use was defined as drug given after the guide wire passage during PCI.

[1] = patients with mechanical complications, n = 17
[2] = patients with no mechanical complication, n = 58

CC(C)NCC(O)COc1cccc2ccccc12 (stereo not shown) [Propranolol, propranolol]
Change in heart rate or blood pressure after IC injection (15 μg/kg intracoronary): no change | Incidence of elevation of CKMB (>5 ng/ml) after PCI (0.015 mg/kg): 17% | Incidence of elevation of Troponin T (>0.10 ng/ml) after PCI (0.015 mg/kg, 16 h): 13% | Death (30 days after PCI, n = 75): 0% | Recurrent MI (30 days after PCI, n = 75): 1% | Urgent/emergent TLR (30 days after PCI, n = 75): 0% | Significant bleeding (after PCI): 3% | Combined 30d MACE (death, myocardial necrosis, recurrent MI, urgent TLR within 30 days, n = 75): 18% | "Rescue" GP IIb/IIIa inhibitors use required (drug given after guide wire passage during PCI): 11% | Adverse systemic effects after IC injection (including respiratory difficulties in 5 patients with history of COPD or asthma): no adverse systemic effects | Heart rate, post drug (largest change after drug administration, baseline 67 ± 11): 66 ± 11 beats/min | Systolic BP, post drug (largest change after drug administration, baseline 139 ± 25): 137 ± 23 mmHg | CKMB elevation ≧3 times upper limit of normal (number of patients out of 75): 7 patients | Elevation of CK (% of patients) [1]: 18% | Elevation of CKMB (% of patients) [1]: 41% | Elevation of troponin T (% of patients) [1]: 35% | Elevation of CK (% of patients) [2]: 0% | Elevation of CKMB (% of patients) [2]: 10% | Elevation of troponin T (% of patients) [2]: 5% | Median value of CKMB (post PCI, all patients): 2.1 | Median value of total CK (post PCI, all patients): 67 | Median value of troponin T (post PCI, all patients): 0.03 | Favorable effect on preventing myocardial necrosis, subgroup analysis (relative risk by subgroups, FIG. 3): broadly applicable | Recurrent MI (number of patients) (within 30 days): 1 patients | Urgent TLR required (number of patients) (within 30 days): 0 patients
